In US12054509B2, “Antimicrobial compounds, compositions, and uses thereof” (Lakewood Amedex, Inc., priority 2017, dated 2024):

Tests used:
[1] = system: Escherichia coli (strain CFT073, TPPS 1041); assay: Urinary tract infection model in BALB/c mice, initial efficacy (Example 10); type: in vivo; details: 1025 mg/kg pH 3.5 transurethral at 24 hr
Description: Female BALB/c mice (20-22 g) ordered from Envigo are acclimated to housing conditions and handled in accordance with Animal Use Protocol (AUP) number TP-08. Animals are fed irradiated Teklad Global 29 18 Rodent Diet and water ad libitum. Mice are housed 6/cage in static cages with irradiated ⅛″ Teklad corn cobbedding 7902 inside bioBubble® clean rooms that provide H.E.P.A filtered air into the bubble environment at 100 complete air changes per hour. The environment is controlled to a temperature range of 74°±4° F. and a humidity range of 30-70%. All procedures carried out in this experiment are conducted in compliance with the laws, regulations, and guidelines of the National Institutes of Health and with the approval of the TransPharm Preclinical Solutions Animal Care and Use Committee.
A clinical isolate of Escherichia coli (strain CFT073, TPPS 1041) are procured from the University of Michigan.
The organism is grown overnight at 37° C. in ambient atmosphere on trypticase soy agar plates supplemented with 5% sheep blood cells. The culture is aseptically swabbed and transferred to tubes of trypticase soy broth. The optical density is determined at 600 nm. The culture is diluted to provide an inoculum of approximately 7.5 log10 CFU per mouse in a volume of 30 μL. Instillation of the bacterial challenge constituted time 0 hour for the study. Inoculum counts are estimated before inoculation by optical density and confirmed after inoculation by dilution and back counts.
One hour prior to bacterial challenge, water is removed from animal cages. […]
The primary endpoint used to assess progress of the infection is mean bacterial burden per gram of urinary bladder tissue. […] Colony forming units (CFU) are enumerated and the total bacterial burden per gram of urinary bladder tissue homogenate is calculated.
The geometric mean CFU, along with standard error of the mean (SEM), are calculated using Microsoft Excel and bar charts are prepared for the data using GraphPad Prism v. […]

[2] = system: E. coli ATCC 25922; assay: Bacterial cytological profiling (Example 6), E. coli; type: cell-based;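 on effect on cell envelope: tested at 1 0.5 and 0.25 times MIC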
Protocol: This bacterial cytological profiling (BCP) study uses methods and materials described previously by Nonejuie, P., Burkart, M., Poglianoa, K., Pogiano, J. (2013). Bacterial cytological profiling rapidly identifies the cellular pathways targeted by antibacterial molecules. Proc. Natl. Acad. Sci. U.S.A. 110(40):16169-16174. doi: 10.1073/pnas.1311066110.
Wild type strains of E. coli ATCC 25922 or P. aeruginosa K2732 are grown in rich media (unbuffered 2× Lysogeny broth [LB]) at 30 C to an OD600˜0.4. These cultures are then split and each sample treated with the appropriate concentration of Nu-8 in unbuffered or buffered LB (final mixture OD600˜0.1). Cells exposed without Nu-8 are buffered to pH 4 with phosphoric acid.
The BCP is performed in LB media buffered to pH 4. The minimum inhibitory concentration (MIC) is measured for Nu-3, Nu-4, Nu-5, and Nu-8 against each bacterial strain. As one of ordinary skill in the art understands, minimum inhibitory concentrations are the lowest concentration of an antimicrobial that will inhibit the visible growth of a microorganism after overnight incubation. […] Cellular viability is assayed at three time points (5 minutes and 4 and 24 h following the onset of treatment).
For imaging E. coli, treated cells are stained with 1 μg/Ml FM4-64, 2 μg/mL DAPI, and 0.5 μM SYTOXGreen (Molecular Probes/Invitrogen). P. aeruginosa samples are stained 0.5 μM SYTOX Green, 28 μg/mL DAPI, and 4.5 μg/mL FM 4-64. Cells are transferred to an agarose pad (20% LB, 1% agarose) for imaging as described in Pogliano, J., Osborne, N., Sharp, M. D., Abanes-De Mello, A., Perez, A., Sun, Y.-L. and Pogliano, K. (1999), A vital stain for studying membrane dynamics in bacteria: a novel mechanism controlling septation during Bacillus subtilis sporulation. Molecular Microbiology, 31: 1149-1159. doi:10.1046/j.1365-2958.1999.01255.x.

[3] = system: Streptococcus pneumoniae (PRSP); assay: MIC at pH 3.5 (CLSI, Mueller-Hinton broth); type: cell-based
[4] = system: E. coli; assay: MIC broth microdilution (CLSI) at incremental pH, E. coli; type: cell-based; details: Escherichia coli
Protocol: MIC testing is conducted using the broth (Mueller Hinton Broth) microdilution procedures relevant to each organism group as established by the Clinical and Laboratory Standards Institute (CLSI; 3-7). MIC plates are prepared in accordance with CLSI (3-7). To prepare the test plates, automated liquid handlers are used to conduct serial dilutions and liquid transfers. Automated liquid handlers utilized in this study include the Multidrop 384 (Labsystems, Helsinki, Finland) and the Biomek 2000 (Beckman Coulter, Fullerton CA). The solution is diluted to desired pH using 1 M Citric Acid or 1 M NaOH buffer. A standardized inoculum of each test organism is prepared per CLSI methods (3, 5-7) to equal a 0.5 McFarland standard in the appropriate media followed by an additional 1:20 dilution (1:10 for anaerobes).
The plates are then inoculated with 10 μL of the diluted 0.5 McFarland suspension using the Biomek 2000 from low to high drug concentration, resulting in a final concentration of approximately 5×10^5 CFU/mL per well. An un-inoculated plate is incubated for the purpose of assessing solubility of the drug in the test media. The plates are stacked 3 to 4 high, covered with a sterile lid on the top plate, and incubated for 18 to 24 hours according to CLSI. The MIC is recorded as the lowest concentration of respective compound that inhibited visible growth of the organism.

**Q.** Which results are given for `CCCCOP(=O)(O)OC[C@H]1O[C@@H](n2ccc(N)nc2=O)C[C@@H]1OP(=O)(O)OCCCC` [Nu-8, sodium ((2R,3S,5R)-5-(4-amino-2-oxopyrimidin-1(2H)-yl)-3-((butoxyoxidophosphor-yl)oxy)tetrahydrofuran-2-yl)methyl butyl phosphate]?
**A.** mean bladder CFU burden ([1]; 20 minutes post-treatment): 2.9 log10 CFU; mean bladder CFU burden ([1]; 60 minutes post-treatment): 3.7 log10 CFU; effect on cell envelope ([2]; BCP): affect the cell envelope; cell membrane permeability ([2]; buffered pH 4 or unbuffered LB): increase cell membrane permeability; DNA condensation ([2]; higher treatment concentrations, buffered pH 4): causes DNA condensation; MIC [3]: 9.38 to 18.8 mg/mL; MIC ([4]; pH 1): 9.8 mg/mL; MIC ([4]; pH 3): 37.5 mg/mL; MIC ([4]; pH 4): 75 mg/mL; MIC ([4]; pH 5): > 75 mg/mL; MIC ([4]; pH 7): > 75 mg/mL
